Laboratory results: patent US20180338980A1, “AROMATIC SULFONAMIDE DERIVATIVES” (BAYER PHARMA AKTIENGESELLSCHAFT, priority 2015, published 2018)

Columns and labels:
Assay type in all cases: cell-based
mouse P2X4 receptors = molecular target: T1, mouse P2X4 receptors (Mus musculus, UniProt Q9JJX6); assay: Assay B: mouse P2X4 receptor cell line, Fluo8 fluorescence FLIPR (agonist Bz-ATP at EC50); conditions: HEK mouse P2X4 cell line, agonist Bz-ATP at EC50, average
T1 construct: host or cells: HEK 293 (recombinant, constitutively expressing)
T1 sequence (Q9JJX6 1-388): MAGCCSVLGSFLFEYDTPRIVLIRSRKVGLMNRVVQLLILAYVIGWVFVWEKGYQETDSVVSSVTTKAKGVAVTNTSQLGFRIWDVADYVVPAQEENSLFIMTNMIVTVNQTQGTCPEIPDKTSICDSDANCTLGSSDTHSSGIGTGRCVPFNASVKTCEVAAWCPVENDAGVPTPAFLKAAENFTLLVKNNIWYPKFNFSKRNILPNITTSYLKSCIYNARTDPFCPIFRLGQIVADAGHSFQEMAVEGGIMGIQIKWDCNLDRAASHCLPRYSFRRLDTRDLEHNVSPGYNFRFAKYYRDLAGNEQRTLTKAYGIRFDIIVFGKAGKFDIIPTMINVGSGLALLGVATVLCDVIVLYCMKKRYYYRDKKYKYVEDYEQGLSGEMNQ
Method: The identification of agonists and antagonists of the P2X4 receptor from humans and […] also the quantification of the activity of the compounds of the invention was performed by use of recombinant cell lines. […] The test cell lines constitutively express the mouse or human P2X4 receptors. Stimulation of the receptors with an agonist leads to a conformational change of P2X4 and influx of extracellular calcium ions through the ion channel. The cytoplasmatic calcium transient is detected via the calcium sensitive dye Fluo8 for the mouse P2×4 cell line or in case of the human P2×4 cell line a stably expressed calcium-sensitive photoprotein, mitochondrial photina, which, after reconstitution with the cofactor coelenterazine, emits light in dependence of calcium binding [Bovolenta S, Foti M, Lohmer S, Corazza S., J Biomol Screen. […] The strength of Fluo8 fluorescence signal or photina luminescence signal corresponds to the level of receptor activation. An inhibitor would decrease the signal depending on its potency and concentration.
On the day of the assay medium is exchanged by Fluo8 containing buffer for 30 minutes. In the fluorescence reader (FLIPR) test substances in various concentrations are added for 10 minutes. After baseline measurement the agonist Bz-ATP at EC50 concentration is applied and fluorescence is measured immediately.

P2X4 [1] = molecular target: T2, P2X4 (Homo sapiens, UniProt Q99571); assay: Assay A: human P2X4 receptor cell line, FLIPR calcium assay (Fluo-8, agonist Bz-ATP at EC80); design: host or cells: HEK 293 (recombinant, constitutively expressing; with mitochondrial photina in Assay B); conditions: HEK human P2X4 cells, Fluo-8 FLIPR; for IC50: Bz-ATP at EC80, average values; for Emax: percentage of maximal inhibition, read-out: human P2X4 Assay A avg Efficacy
T2 sequence (Q99571 1-388): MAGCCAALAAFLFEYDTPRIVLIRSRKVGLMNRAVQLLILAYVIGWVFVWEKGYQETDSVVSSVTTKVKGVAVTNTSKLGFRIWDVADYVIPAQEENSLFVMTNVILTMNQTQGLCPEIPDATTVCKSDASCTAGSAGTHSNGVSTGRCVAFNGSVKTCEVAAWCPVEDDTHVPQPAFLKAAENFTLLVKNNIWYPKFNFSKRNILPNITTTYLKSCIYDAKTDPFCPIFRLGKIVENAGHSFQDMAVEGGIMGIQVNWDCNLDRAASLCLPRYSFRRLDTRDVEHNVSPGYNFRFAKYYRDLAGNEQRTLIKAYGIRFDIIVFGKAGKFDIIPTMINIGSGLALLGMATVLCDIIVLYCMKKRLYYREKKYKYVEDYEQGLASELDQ
Procedure, shortened: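 Antagonism read as inhibition of the calcium response to EC80 Bz-ATP, by peak-over-basal Fluo-8 fluorescence over 120 s, normalized to DMSO wells. Human P2X4-HEK cells, dye-loaded 30 min in probenecid-containing HBSS/HEPES pH 7.4, received compound 30 min beforehand at room temperature, 0.5% DMSO final. Triplicates fitted for IC50, maximal inhibition and Hill slope.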

P2X4 [2] = molecular target: T2, P2X4; assay: Assay B: human P2X4 receptor cell line, mitochondrial photina luminescence (agonist Bz-ATP at EC50); design: host or cells: HEK 293 (recombinant, constitutively expressing; with mitochondrial photina in Assay B); conditions: HEK human P2X4 cell line, photina luminescence, agonist Bz-ATP at EC50, average; for Emax: read-out: human P2X4 Assay B avg Efficacy
Procedure, shortened: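 Bz-ATP at its EC50 activates human P2X4 stably expressed in a cell line that also carries the calcium-sensitive photoprotein mitochondrial photina (coelenterazine cofactor). Light emitted on calcium influx is measured straight away in a luminometer. Reduced luminescence indicates antagonism.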

| Structure (SMILES) | IC50 (mouse P2X4 receptors) [nM] | mouse P2X4 Assay B avg Efficacy (mouse P2X4 receptors) [%] | IC50 (P2X4 [1]) [nM] | Emax (P2X4 [1]) [%] | IC50 (P2X4 [2]) [nM] | Emax (P2X4 [2]) [%] |
| --- | --- | --- | --- | --- | --- | --- |
| NS(=O)(=O)c1cc(NC(=O)Cc2ccccc2Cl)ccc1Oc1ccc(F)cc1 [Example 012, 2-(2-chlorophenyl)-N-[4-(4-fluorophenoxy)-3-sulfamoylphenyl]acetamide] | 1240 | 44 | 20 | 70 | 43 | 56 |
| NS(=O)(=O)c1cc(NC(=O)Cc2ccccc2Cl)ccc1Oc1ccccn1 [Example 013, 2-(2-Chlorophenyl)-N-[4-(pyridin-2-yloxy)-3-sulfamoylphenyl]acetamide] | > 16000 | 31 |  | 93 |  | 71 |
| NS(=O)(=O)c1cc(NC(=O)Cc2ccccc2Cl)ccc1Oc1ccccc1 [Example 014, 2-(2-Chlorophenyl)-N-(4-phenoxy-3-sulfamoylphenyl)acetamide] | > 16000 | 25 |  | 85 |  | 70 |
| NC(=O)c1cccc(Oc2ccc(NC(=O)Cc3ccccc3Cl)cc2S(N)(=O)=O)c1 [Example 017, 3-(4-{[(2-Chlorophenyl)acetyl]amino}-2-sulfamoylphenoxy)benzamide] | 805 | 44 | 61 | 86 | 55 | 65 |
| NS(=O)(=O)c1cc(NC(=O)Cc2ccccc2Cl)ccc1Oc1cnc(Cl)c(Cl)c1 [Example 036, 2-(2-Chlorophenyl)-N-{4-[(5,6-dichloropyridin-3-yl)oxy]-3-sulfamoylphenyl}acetamide] | > 50000 | 15 | 106 | 81 | 68 | 79 |
| NS(=O)(=O)c1cc(NC(=O)Cc2ccccc2Cl)ccc1Oc1ccc(-n2ccnc2)cc1 [Example 042, 2-(2-Chlorophenyl)-N-{4-[4-(1H-imidazol-1-yl)phenoxy]-3-sulfamoylphenyl}acetamide] | > 50000 | 54 | 241 | 89 | 460 | 90 |
| NS(=O)(=O)c1cc(NC(=O)Cc2cccc(F)c2Cl)ccc1Oc1cccc(Cl)c1 [Example 098, 2-(2-Chloro-3-fluorophenyl)-N-[4-(3-chlorophenoxy)-3-sulfamoylphenyl]acetamide] | 387 | 69 | 7 | 95 | 25 | 57 |
| NS(=O)(=O)c1cc(NC(=O)Cc2cc(F)ccc2Cl)ccc1Oc1cccc(Cl)c1 [Example 099, 2-(2-Chloro-5-fluorophenyl)-N-[4-(3-chlorophenoxy)-3-sulfamoylphenyl]acetamide] | 808 | 67 | 168 | 77 | 22 | 55 |
| NS(=O)(=O)c1cc(NC(=O)Cc2c(Cl)cccc2Cl)ccc1Oc1cccc(Cl)c1 [Example 104, N-[4-(3-Chlorophenoxy)-3-sulfamoylphenyl]-2-(2,6-dichlorophenyl)acetamide] | 604 | 59 |  | 78 |  | 60 |
| NS(=O)(=O)c1cc(NC(=O)Cc2ccccc2Cl)ccc1OCc1ccccc1F [Example 137, 2-(2-Chlorophenyl)-N-{4-[(2-fluorobenzyl)oxy]-3-sulfamoylphenyl}acetamide] | 1750 | 66 | 35 | 88 | 33 | 98 |
| N#Cc1ccc(COc2ccc(NC(=O)Cc3ccccc3Cl)cc2S(N)(=O)=O)cc1 [Example 138, 2-(2-Chlorophenyl)-N-{4-[(4-cyanobenzyl)oxy]-3-sulfamoylphenyl}acetamide] | 9390 | 41 | 4 | 67 | 27 | 56 |
| NS(=O)(=O)c1cc(NC(=O)Cc2ccccc2Cl)ccc1OCc1cccc(Cl)c1 [Example 139, N-{4-[(3-Chlorobenzyl)oxy]-3-sulfamoylphenyl}-2-(2-chlorophenyl)acetamide] | 612 | 52 | 26 | 82 | 43 | 63 |
| NS(=O)(=O)c1cc(NC(=O)Cc2ccccc2Cl)ccc1OCc1ccccc1 [Example 141, N-[4-(Benzyloxy)-3-sulfamoylphenyl]-2-(2-chlorophenyl)acetamide] | 1130 | 66 |  | 96 |  | 69 |
| NS(=O)(=O)c1cc(NC(=O)Cc2ccc(C(F)(F)F)cc2)ccc1OCc1ccccn1 [Example 152, N-[4-(Pyridin-2-ylmethoxy)-3-sulfamoylphenyl]-2-[4-(trifluoromethyl)phenyl]acetamide] | > 50000 | 35 | > 25000 | 47 | 431 | 89 |
| NS(=O)(=O)c1cc(NC(=O)Cc2ccccc2Cl)ccc1OCCc1cccc(Cl)c1 [Example 156, 2-(2-Chlorophenyl)-N-{4-[2-(3-chlorophenyl)ethoxy]-3-sulfamoylphenyl}acetamide] | > 50000 | 25 | 12 | 81 | 47 | 58 |
| CC(C(=O)Nc1ccc(Oc2cccc(Cl)c2)c(S(N)(=O)=O)c1)c1c(F)cccc1Cl (stereo not drawn) [Example 258, 2-(2-Chloro-6-fluorophenyl)-N-[4-(3-chlorophenoxy)-3-sulfamoylphenyl]propanamide] | 260 | 52 | 779 | 76 |  |  |
| Cc1cc(NC(=O)Cc2ccccc2Cl)cc(S(N)(=O)=O)c1Oc1cccc(Cl)c1 [Example 270, N-[4-(3-Chlorophenoxy)-3-methyl-5-sulfamoylphenyl]-2-(2-chlorophenyl)acetamide] | 1240 | 44 | 104 | 94 |  |  |
| Cc1cc(NC(=O)Cc2ccccc2)cc(S(N)(=O)=O)c1Oc1cccc(Cl)c1 [Example 271, N-[4-(3-Chlorophenoxy)-3-methyl-5-sulfamoylphenyl]-2-phenylacetamide] | > 16000 | 31 | 81 | 84 |  |  |
| COC(=O)c1ccccc1Oc1ccc(NC(=O)Cc2ccccc2Cl)cc1S(N)(=O)=O [Example 272, Methyl 2-(4-{[(2-chlorophenyl)acetyl]amino}-2-sulfamoylphenoxy)benzoate] | > 16000 | 25 | 19 | 73 |  |  |
| COC(=O)c1ccc(Oc2ccc(NC(=O)Cc3ccccc3Cl)cc2S(N)(=O)=O)cc1 [Example 273, Methyl 4-(4-{[(2-chlorophenyl)acetyl]amino}-2-sulfamoylphenoxy)benzoate] | 149 | 45 | 18 | 78 |  |  |
